# Values quoted from earlier work, collected in patent publication US6441198B1, “Podophyllotoxin dimer as DNA topoisomerase II inhibitors, and a process for the preparation therefore” (Council of Scientific and Industrial Research, priority 2000, dated 2002).
# Legend:
# [1] = test system: human DNA topoisomerase II; conditions: relative to etoposide
# [2] = test system: cellular protein-DNA complex formation; conditions: relative to etoposide
smiles,measurement,setting,value
"COc1cc(C2c3cc4c(cc3C(Nc3ccc(F)cc3)C3COC(=O)C23)OCO4)cc(OC)c1O (stereo not drawn) [NPF, 4′-0-demethyl-4β-(4″-fluoroanilino)-4-desoxypodophyllotoxin]",potency in inhibiting human DNA topoisomerase II compared to etoposide,[1],10 fold
same,activity in cellular protein-DNA complex formation compared to etoposide,[2],113 times
same,activity in in vitro human tumour cell lines assay,human tumour cell lines,very active
